From patent publication US9067960B2, “Hybrid SCFA-hydroxyl-derivatized monosaccharides, methods of synthesis, and methods of treating disorders” (The Johns Hopkins University, priority 2007, dated 2015)
Entries after “also recorded” stand apart in the source; their conditions may differ.

Assays:
Toxicity of MOE analogs = type: cell-based
transformed cells = settings: cited from earlier work
Jurkat cells [1] = test: Surface expression of Sia5Lev: ketone-bearing sialosides by biotin hydrazide, FITC-avidin, flow cytometry; type: cell-based, human
Jurkat cells [2] = test: Toxicity and growth inhibition assays (cell counts, days 3-15); type: cell-based, human
Method: Solutions of the analogs in EtOH (10 mM stock) are coated onto 24-well plates at a range of concentrations from 0-320 μM and ethanol is allowed to evaporate. Jurkat cells (1.0×10^5 cells) in 0.5 mL of medium are plated in each well (day 0). On days 3 and 5, fresh medium (1.0 mL) is added to each well. Cell cultures are mixed by gentle pipetting and 100 μL of cell suspension are taken from each well and counted. On days 7, 9, 11, 13 and 15, 1.0 mL of cell suspension is removed from each well after thorough mixing and fresh medium (1.0 mL) is added. Cells are counted on day 15 and the cell density is plotted as a percentage of control.
In initial assays, Jurkat (human T-lymphoma) cells are incubated with compounds of the invention and growth rates were monitored. The compounds reduce cell proliferation at early time points (days 3 & 5) in a dose dependent manner.

sialic acid biosynthesis = test: Total sialic acid production (periodate-resorcinol assay); type: cell-based
Method: Jurkat cells (5.0×10^6 cells in 10 mL medium) are incubated a compound of the invention at various concentrations. After three days, the cells (1.0×10^6 cells per sample) are lysed by freeze-thaw cycles (three times). The cell lysates are analyzed by using an adapted version of the periodate-resorcinol assay with the periodic acid oxidation step performed on ice to allow quantification of total (i.e., free monosaccharide plus glycoconjugate-bound) sialic acid. For each assay, a standard curve is obtained using N-acetylneuraminic acid (Pfanstiehl, Waukegan, Ill.) for calibration.

histone deacetylase = test: HDAC inhibitor (SCFA) activity of sugar-delivered butyrate; type: cell-based
Description: In this section, we present evidence for the first aspect of our model to describe the bioactivity of the compounds of the invention against cancer cells—namely that sugar-delivered butyrate acts as an HDACi—by a set of three complementary assays. […] Together, these assays provide convincing proof that sugar-delivery n-butyrate retains its characteristic SCFA bioactivity.

human cancer cells = test: Killing of cancer cells by SCFA-hexosamine hybrid molecules (apoptosis, growth); type: cell-based
Description: ManNAc has several attractive features that led us to select it as an hexosamine for use in butyrate-sugar hybrid drug development. First, it is a committed precursor for the sialic acid biosynthetic pathway and has no other known metabolic roles, thereby allowing a specific and unique biochemical pathway to be targeted. Second, uptake of exogenous ManNAc alters flux through the sialic acid biosynthetic pathway and changes sialyltransferase and sialidase activity thereby altering the display of sialic acid on cell surface glycoproteins and glycolipids. Because these sialoglycans modulate apoptosis, it was hypothesized that an n-butyrate prodrug with ManNAc as an active carrier would both “arrest” and “execute” cancer cells via SCFA-mediated cell cycle inhibition and ManNAc-augmented apoptosis, respectively. […]
Jurkat cells (5.0×10^5 per mL) are incubated with PBS and a compound of the invention at […]. After 48 h, the cells are counted, harvested, washed once in fresh medium and plated in a 24-well plate containing various concentrations of sodium butyrate (0-2.0 mM; a stock solution of 200 mM in PBS was used for dilutions and control samples). Cell cultures are maintained and growth is monitored for 15 days as described above under the toxicity and growth inhibition assays. […]

stem cells = test: Control of stem cell fate; type: cell-based, human
Description: The combination of the biological activities SCFA- and sugar activities of compounds (such as Bu4ManNAc or l(OH)But3ManNAc is useful for cancer treatment because each of the biological activities of the hybrid molecule have been designed to work in concert against a particular characteristic of cancer. An equally valuable aspect of the current invention, however, is ability to separate the various biological activities of the hybrid molecules—for example it is now possible to maintain flux through a glycosylation pathway and to simultaneously avoid or minimize SCFA effects such as toxicity or changes to gene expression that affect the cellular phenotype under investigation (see FIG. 10). This ability opens the door to the many scenarios where an SCFA is attached to a core sugar towards the sole purpose of increasing the metabolic efficiency of the sugar without triggering biological activities of the SCFA moiety. In this case, non-natural monosaccharide analogs would transit the glycosylation pathways without eliciting unrelated changes to proliferation, apoptosis, or gene expression that would either confound interpretation of the experiment under way or actually lead to deleterious cellular outcomes. […]

Compound: CC(=O)OCC(=O)N[C@@H]1C(OC(C)=O)O[C@H](COC(C)=O)[C@@H](OC(C)=O)[C@@H]1OC(C)=O (some centres unmarked) [Ac5ManNGc]
- toxicity (Toxicity of MOE analogs): considerable toxicity

Compound: CCCC(=O)O.COc1cccc(C#CCON=C2CN3CCC2C3)c1 (centres unmarked) [n-Butyrate, n-butyrate]
- levels needed for bioactivity (transformed cells): up to 50 mM

Compound: CCCC(=O)OC1O[C@H](CO)[C@@H](OC(=O)CCC)[C@H](OC(=O)CCC)[C@@H]1NC(C)=O (some centres unmarked) [6(OH)But3ManNAc, 1,3,4-O-Bu3ManNAc]
- toxicity (Toxicity of MOE analogs): avoiding toxicity

Compound: CCCC(=O)OC1O[C@H](CO)[C@@H](OC(=O)CCC)[C@H](OC(=O)CCC)[C@@H]1NC(=O)CCC(C)=O (stereo partly drawn) [compound 13, 1,3,4-tri-O-butanoyl-2-deoxy-2-(4-oxopentanoyl)amino-α,β-D-mannopyranose]
- Surface detection of ketone-bearing sialosides (cell surface ketone labeling) (Jurkat cells [1]): even more efficient at providing cell surface ketone labeling
- Growth inhibition after 3 days (Jurkat cells [2]): significantly less inhibitory

Compound: CCCC(=O)OCC1OC(OC(=O)CCC)C(NC(C)=O)[C@@H](OC(=O)CCC)[C@@H]1OC(=O)CCC (some centres unmarked) [Bu4ManNAc]
- sialic acid biosynthesis (sialic acid biosynthesis): activates sialic acid biosynthesis; also recorded: primes sialic acid biosynthesis
- function as histone deacetylase inhibitor (HDACi) (histone deacetylase): functioning as an HDACi
- cell killing (human cancer cells): ultimately killed the cells
- induction of apoptosis (human cancer cells): gains a unique ability to induce apoptosis; also recorded: efficiently induced apoptosis

Compound: CC(=O)OCC1OC(OC(C)=O)C(NC(=O)CSC(C)=O)C(OC(C)=O)C1OC(C)=O (centres unmarked) [Ac5ManNTGc]
- toxicity (Toxicity of MOE analogs): considerable toxicity
- fate of stem cells (stem cells): can control the fate of stem cells
